Assay results as given in article PMC6017193, “Structure-Based Discovery of a Series of 5H-Pyrrolo[2,3-b]pyrazine FGFR Kinase Inhibitors” (Molecules : A Journal of Synthetic Chemistry and Natural …, 2018).

Assays:
PDGFR-α = PDGFR-α (Homo sapiens, UniProt P16234); test: Kinase panel profiling; type: biochemical
AXL = target: T1, AXL (Homo sapiens, UniProt P30530); test: Kinase panel profiling; type: biochemical
T1 sequence (P30530 26-894): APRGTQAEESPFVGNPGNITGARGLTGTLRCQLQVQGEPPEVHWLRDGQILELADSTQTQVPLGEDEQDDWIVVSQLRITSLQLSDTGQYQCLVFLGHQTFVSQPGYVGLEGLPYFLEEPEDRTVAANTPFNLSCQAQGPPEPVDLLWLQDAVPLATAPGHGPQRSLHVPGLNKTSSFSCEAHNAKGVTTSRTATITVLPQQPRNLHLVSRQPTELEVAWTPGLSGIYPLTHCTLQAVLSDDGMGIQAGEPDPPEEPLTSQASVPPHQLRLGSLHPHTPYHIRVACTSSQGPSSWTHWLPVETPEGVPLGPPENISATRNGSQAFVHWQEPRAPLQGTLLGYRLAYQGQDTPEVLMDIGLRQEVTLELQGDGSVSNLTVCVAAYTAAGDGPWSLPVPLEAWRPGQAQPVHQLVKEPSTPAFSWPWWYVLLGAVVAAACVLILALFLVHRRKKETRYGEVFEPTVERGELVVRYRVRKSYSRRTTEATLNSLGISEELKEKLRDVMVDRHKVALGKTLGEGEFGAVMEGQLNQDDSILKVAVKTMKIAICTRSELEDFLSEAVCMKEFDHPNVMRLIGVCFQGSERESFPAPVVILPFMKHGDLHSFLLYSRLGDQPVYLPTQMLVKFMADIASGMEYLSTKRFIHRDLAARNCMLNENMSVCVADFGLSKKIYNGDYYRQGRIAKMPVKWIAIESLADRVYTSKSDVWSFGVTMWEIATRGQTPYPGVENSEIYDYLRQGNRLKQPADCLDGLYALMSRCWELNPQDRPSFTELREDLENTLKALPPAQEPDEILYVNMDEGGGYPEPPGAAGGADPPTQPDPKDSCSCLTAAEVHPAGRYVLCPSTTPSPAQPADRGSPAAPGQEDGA

ROS1 = ROS1 (Homo sapiens, UniProt P08922); test: Kinase panel profiling; type: biochemical
EPH-A2 = EPH-A2 (Homo sapiens, UniProt P29317); test: Kinase panel profiling; type: biochemical
Chain of EPH-A2 (P29317 24-976, species assumed): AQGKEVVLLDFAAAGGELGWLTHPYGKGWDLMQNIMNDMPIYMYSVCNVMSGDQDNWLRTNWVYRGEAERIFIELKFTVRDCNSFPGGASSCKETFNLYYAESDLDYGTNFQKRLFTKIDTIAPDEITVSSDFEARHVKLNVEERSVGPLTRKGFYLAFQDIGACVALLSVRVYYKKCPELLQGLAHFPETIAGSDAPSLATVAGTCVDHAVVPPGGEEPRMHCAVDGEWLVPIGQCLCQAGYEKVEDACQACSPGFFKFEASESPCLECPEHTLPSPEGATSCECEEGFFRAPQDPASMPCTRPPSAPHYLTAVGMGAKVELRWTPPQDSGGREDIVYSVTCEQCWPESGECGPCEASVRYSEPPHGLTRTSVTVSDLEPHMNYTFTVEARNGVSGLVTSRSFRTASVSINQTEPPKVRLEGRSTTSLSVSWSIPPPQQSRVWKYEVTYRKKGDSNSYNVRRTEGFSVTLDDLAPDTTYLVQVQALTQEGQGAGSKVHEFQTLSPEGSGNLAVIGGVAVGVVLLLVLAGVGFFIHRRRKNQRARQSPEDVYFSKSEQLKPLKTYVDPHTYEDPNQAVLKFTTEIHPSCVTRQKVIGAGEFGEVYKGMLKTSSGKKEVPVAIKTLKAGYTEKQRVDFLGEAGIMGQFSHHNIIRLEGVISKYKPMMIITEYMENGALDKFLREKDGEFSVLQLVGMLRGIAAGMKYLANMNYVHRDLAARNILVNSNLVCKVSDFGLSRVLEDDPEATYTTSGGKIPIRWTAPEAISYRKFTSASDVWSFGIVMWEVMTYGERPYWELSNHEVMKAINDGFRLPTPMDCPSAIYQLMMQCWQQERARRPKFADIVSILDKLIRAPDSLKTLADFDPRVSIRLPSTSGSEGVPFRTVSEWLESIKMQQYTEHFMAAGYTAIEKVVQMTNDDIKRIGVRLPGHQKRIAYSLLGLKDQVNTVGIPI

VEGFR-1 = VEGFR-1 (Homo sapiens, UniProt P17948); test: Kinase panel profiling; type: biochemical
Chain of VEGFR-1 (P17948 27-1338, species assumed): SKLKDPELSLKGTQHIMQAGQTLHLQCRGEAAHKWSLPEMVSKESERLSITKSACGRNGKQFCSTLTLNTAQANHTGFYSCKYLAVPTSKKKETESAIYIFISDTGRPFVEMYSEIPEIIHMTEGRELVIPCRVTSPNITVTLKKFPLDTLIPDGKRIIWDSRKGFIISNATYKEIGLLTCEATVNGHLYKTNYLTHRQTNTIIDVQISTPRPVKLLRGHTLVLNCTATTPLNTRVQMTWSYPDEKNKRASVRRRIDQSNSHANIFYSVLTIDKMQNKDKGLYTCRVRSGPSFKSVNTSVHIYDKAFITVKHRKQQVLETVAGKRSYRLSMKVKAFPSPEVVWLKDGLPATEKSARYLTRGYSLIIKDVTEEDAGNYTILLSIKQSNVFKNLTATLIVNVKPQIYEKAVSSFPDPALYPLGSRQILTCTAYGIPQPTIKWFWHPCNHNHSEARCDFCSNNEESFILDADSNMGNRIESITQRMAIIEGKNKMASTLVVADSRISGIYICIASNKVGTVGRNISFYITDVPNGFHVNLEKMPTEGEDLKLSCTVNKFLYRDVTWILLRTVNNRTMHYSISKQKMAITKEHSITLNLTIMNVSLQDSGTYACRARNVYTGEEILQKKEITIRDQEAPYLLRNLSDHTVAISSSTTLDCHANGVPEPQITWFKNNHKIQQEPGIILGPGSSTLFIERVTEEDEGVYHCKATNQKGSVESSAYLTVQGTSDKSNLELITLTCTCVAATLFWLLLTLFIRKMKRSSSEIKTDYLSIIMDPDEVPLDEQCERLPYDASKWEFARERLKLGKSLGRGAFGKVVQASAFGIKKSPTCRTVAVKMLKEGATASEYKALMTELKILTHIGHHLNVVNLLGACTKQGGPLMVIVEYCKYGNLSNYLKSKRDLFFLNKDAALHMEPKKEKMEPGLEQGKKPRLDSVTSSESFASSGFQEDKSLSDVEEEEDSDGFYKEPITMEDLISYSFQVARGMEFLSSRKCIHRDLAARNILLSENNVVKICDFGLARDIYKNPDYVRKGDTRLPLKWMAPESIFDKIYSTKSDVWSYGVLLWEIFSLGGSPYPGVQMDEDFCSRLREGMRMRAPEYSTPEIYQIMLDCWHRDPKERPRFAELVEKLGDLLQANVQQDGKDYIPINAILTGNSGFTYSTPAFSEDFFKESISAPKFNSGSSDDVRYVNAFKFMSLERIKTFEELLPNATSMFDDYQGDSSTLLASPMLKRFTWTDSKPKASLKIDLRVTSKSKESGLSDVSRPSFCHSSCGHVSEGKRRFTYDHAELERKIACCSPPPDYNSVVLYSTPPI

FGFR2 = FGFR2 (Homo sapiens, UniProt P21802); test: Kinase panel profiling; type: biochemical
Chain of FGFR2 (P21802 22-821): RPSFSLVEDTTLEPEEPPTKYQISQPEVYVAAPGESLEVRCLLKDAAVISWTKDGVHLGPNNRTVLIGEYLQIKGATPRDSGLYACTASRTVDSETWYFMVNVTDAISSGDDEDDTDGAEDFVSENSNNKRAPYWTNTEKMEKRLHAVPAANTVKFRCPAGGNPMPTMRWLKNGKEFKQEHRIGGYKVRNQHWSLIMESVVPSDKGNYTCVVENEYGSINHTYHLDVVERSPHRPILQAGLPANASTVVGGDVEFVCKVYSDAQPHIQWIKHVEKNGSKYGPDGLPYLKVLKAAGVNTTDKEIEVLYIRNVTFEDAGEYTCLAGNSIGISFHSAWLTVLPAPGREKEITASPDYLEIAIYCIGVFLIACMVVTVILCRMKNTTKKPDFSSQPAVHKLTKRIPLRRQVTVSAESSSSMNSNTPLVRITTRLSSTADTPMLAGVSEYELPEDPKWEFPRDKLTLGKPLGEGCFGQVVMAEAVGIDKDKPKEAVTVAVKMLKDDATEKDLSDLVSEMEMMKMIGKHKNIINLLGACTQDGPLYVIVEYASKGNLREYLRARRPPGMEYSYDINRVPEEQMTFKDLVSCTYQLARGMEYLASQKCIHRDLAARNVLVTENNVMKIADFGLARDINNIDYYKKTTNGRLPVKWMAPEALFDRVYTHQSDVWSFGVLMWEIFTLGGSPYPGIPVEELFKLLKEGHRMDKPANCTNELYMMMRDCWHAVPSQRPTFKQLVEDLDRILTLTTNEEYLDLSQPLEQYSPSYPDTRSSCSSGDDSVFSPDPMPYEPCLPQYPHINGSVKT

DDR2 = target: T2, DDR2 (Homo sapiens, UniProt Q16832); test: Kinase panel profiling; type: biochemical
T2 sequence (Q16832 22-855): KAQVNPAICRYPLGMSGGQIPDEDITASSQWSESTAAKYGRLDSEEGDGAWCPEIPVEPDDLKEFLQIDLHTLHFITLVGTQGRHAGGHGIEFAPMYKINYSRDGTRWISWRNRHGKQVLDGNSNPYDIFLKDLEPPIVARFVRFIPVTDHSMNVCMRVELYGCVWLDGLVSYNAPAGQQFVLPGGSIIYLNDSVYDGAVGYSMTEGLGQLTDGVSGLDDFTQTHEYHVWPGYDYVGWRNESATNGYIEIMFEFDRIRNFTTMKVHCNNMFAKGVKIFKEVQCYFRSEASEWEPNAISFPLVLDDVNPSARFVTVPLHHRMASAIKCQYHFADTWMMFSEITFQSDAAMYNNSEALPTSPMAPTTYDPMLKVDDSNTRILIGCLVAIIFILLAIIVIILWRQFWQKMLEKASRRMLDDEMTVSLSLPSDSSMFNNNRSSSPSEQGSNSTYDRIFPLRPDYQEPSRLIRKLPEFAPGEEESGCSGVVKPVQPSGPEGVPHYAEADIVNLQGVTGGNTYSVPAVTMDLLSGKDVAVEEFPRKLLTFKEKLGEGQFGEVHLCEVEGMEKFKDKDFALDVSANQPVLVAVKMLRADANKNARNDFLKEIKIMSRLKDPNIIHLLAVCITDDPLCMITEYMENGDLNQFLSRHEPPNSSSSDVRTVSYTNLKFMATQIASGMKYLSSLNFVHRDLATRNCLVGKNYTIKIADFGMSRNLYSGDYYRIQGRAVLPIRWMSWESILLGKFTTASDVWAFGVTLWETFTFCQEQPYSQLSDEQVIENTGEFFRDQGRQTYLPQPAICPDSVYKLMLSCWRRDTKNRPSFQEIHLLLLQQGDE

[1] = system: KG1 leukemia cell line harboring FGFR1OP-FGFR1 fusion; test: Cell proliferation assay in KG1 cells (SRB or MTT, 72 h); type: cell-based; conditions: Homo sapiens, KG-1, mean ± SD from two separate experiments, read-out: KG1 IC50 (antiproliferation activity)
Procedure: Cell proliferation was examined in a FGFR1-translocated KG1 leukemia cell line harboring FGFR1OP-FGFR1 fusion. The original KG1 cell line was purchased from ATCC (CRL-8031), and cultured according the ATCC standard protocol. Cells were seeded in 96-well tissue culture plates. On the next day, the cells were exposed to various concentrations of compounds and further cultured for 72 h. Cell proliferation was then determined using sulforhodamine B (SRB, from Sigma-Aldrich, St Louis, MO, USA) or the thiazolyl blue tetrazolium bromide (MTT, from Sigma-Aldrich, St Louis, MO, USA) assay. The IC50 values were calculated by concentration- response curve fitting using the four-parameter method.

Abl = Abl (Homo sapiens, UniProt P00519); test: Kinase panel profiling; type: biochemical
Chain of Abl (P00519 whole entry, species assumed): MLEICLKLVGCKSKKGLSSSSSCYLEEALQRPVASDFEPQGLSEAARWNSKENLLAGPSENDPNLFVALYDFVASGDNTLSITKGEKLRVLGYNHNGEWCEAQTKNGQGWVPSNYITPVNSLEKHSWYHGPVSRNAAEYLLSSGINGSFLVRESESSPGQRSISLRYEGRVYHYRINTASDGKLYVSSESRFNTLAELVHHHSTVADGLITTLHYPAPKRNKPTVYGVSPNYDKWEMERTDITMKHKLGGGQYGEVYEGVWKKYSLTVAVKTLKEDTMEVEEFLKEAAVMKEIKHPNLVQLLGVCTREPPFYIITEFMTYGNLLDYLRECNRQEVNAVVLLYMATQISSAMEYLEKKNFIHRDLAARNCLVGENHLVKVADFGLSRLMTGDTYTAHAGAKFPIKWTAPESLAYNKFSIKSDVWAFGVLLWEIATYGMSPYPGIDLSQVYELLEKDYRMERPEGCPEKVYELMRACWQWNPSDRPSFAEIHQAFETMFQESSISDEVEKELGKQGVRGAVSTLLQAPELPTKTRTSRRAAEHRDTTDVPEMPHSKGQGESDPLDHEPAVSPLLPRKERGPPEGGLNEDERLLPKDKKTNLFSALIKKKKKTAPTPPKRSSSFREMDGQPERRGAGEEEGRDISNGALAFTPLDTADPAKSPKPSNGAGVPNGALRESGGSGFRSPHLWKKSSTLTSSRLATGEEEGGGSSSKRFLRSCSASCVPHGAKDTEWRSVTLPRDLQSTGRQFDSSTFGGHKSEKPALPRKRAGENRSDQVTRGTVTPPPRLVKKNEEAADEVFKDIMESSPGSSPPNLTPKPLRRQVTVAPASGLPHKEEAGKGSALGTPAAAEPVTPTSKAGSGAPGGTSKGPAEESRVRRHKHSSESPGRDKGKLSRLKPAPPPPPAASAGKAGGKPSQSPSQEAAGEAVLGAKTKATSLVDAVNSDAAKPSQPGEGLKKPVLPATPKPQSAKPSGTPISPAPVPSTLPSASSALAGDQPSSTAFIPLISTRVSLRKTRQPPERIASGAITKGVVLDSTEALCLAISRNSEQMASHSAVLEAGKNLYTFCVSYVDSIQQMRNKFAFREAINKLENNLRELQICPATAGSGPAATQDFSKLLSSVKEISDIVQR

FGFR3 = FGFR3 (Homo sapiens, UniProt P22607); test: Kinase panel profiling; type: biochemical
Chain of FGFR3 (P22607 23-806): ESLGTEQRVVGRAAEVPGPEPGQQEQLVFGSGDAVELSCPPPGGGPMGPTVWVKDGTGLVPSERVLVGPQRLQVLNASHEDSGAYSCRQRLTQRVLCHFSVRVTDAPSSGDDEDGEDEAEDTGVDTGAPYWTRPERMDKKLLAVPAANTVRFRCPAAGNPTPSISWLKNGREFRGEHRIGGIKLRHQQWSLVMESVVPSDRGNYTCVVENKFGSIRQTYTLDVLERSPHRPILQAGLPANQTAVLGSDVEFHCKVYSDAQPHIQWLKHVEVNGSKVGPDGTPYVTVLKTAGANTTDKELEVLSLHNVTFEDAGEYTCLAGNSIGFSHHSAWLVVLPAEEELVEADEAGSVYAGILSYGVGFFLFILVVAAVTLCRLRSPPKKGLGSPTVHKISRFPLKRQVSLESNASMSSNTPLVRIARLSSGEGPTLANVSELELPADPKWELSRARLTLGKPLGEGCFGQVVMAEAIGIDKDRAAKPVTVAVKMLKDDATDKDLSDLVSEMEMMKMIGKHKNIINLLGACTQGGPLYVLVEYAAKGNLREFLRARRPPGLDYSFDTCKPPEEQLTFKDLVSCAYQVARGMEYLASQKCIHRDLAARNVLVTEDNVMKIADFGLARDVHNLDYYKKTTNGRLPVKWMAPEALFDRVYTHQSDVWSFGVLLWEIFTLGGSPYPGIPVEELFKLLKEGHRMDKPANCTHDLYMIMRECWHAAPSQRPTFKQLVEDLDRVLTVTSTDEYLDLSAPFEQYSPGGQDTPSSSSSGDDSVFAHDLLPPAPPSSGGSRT

O=S(=O)(c1cn(CCF)cn1)n1ccc2ncc(-c3cn[nH]c3)nc21 [Compound 13, 5-((1-(2-fluoroethyl)-1H-imidazol-4-yl)sulfonyl)-3-(1H-pyrazol-4-yl)-5H-pyrrolo[2,3-b]pyrazine]
inhibition at 0.01 µM (PDGFR-α; 10 nM): 21.9%
inhibition at 0.1 µM (PDGFR-α; 100 nM): 20.9%
inhibition at 1 µM (PDGFR-α; 1000 nM): 23.2%
inhibition at 0.01 µM (AXL; 10 nM): 1.1%
inhibition at 0.1 µM (AXL; 100 nM): 2.9%
inhibition at 1 µM (AXL; 1000 nM): -5.5%
inhibition at 0.01 µM (ROS1; 10 nM): -3.8%
inhibition at 0.1 µM (ROS1; 100 nM): 3%
inhibition at 1 µM (ROS1; 1000 nM): 11.8%
inhibition at 0.01 µM (EPH-A2; 10 nM): 0%
inhibition at 0.1 µM (EPH-A2; 100 nM): 0%
inhibition at 1 µM (EPH-A2; 1000 nM): 0%
inhibition at 0.01 µM (VEGFR-1; 10 nM): 0%
inhibition at 0.1 µM (VEGFR-1; 100 nM): 4.9%
inhibition at 1 µM (VEGFR-1; 1000 nM): 0%
inhibition at 0.01 µM (FGFR2; 10 nM): 60.9%
inhibition at 0.1 µM (FGFR2; 100 nM): 92%
inhibition at 1 µM (FGFR2; 1000 nM): 97.2%
inhibition at 0.01 µM (DDR2; 10 nM): 3.6%
inhibition at 0.1 µM (DDR2; 100 nM): 0.9%
inhibition at 1 µM (DDR2; 1000 nM): 4.6%
IC50 [1]: 29.1 ± 5.5 nM
inhibition at 0.01 µM (Abl; 10 nM): 0%
inhibition at 0.1 µM (Abl; 100 nM): 0%
inhibition at 1 µM (Abl; 1000 nM): 0%
inhibition at 0.01 µM (FGFR3; 10 nM): 42.9%
inhibition at 0.1 µM (FGFR3; 100 nM): 79%
inhibition at 1 µM (FGFR3; 1000 nM): 88.9%
